US20240158359A1, “HYDROLYSIS-RESISTANT ESTERS FOR DRUG AND IMAGING AGENT DELIVERY” (The Board of Trustees of the University of lllinois, priority 2022, published 2024)

Assays:
[1] = Hydrolytic stability of Compound (4) in Britton-Robinson buffer at pH 5, 7.4 and 9; assay type: physicochemical; conditions: 10 μM
Method: (§1) Following this set of experiments, we subjected Compound (4) to acidic (pH 5) and alkaline (pH 9) conditions to account for the various pH gradients in the body. For these experiments we used the Britton-Robinson buffer system. […] These include lipase, human carboxyesterase-2, monoacylglycerol lipase, fatty acid amide hydrolase, and aldehyde dehydrogenase 1A1.
Compound (4) (10 μM final concentration with 1% DMSO) was first incubated in Britton-Robinson buffer (pH 5, 7.4 and 9) at 37° C. for 2, 3 and 4 hrs. Then the pH's were adjusted to 7.4. Luminescence was measured by blocking excitation light and measuring emissions with 660 nm gating. Total volume of the reaction mixture was maintained at 100 μL. To the 50 μL of this reaction mixture was ATP-MgSO4 (45 μL, prepared by mixing 17.78 mM ATP-Mg and 35.56 mM MgSO4 in 1:1 ratio in PBS buffer) and the reaction was initiated with Luciferase (5 μL, 0.25 mg/mL in PBS containing 10% glycerol).

[2] = Hydrolytic stability of BL660 esters in PBS, luciferase BL readout; assay type: physicochemical; conditions: PBS pH 7.4, 37° C.; versus Compound (1)
Method: We began our analysis of stability by incubating BL660 esters of Compound (1), Compound (2), and Compound (3) at 37° C. in PBS (phosphate-buffered saline) (pH 7.4). After 1, 6, and 12 hours, luciferase was added (10mU, 37° C., pH 7.4) to initiate BL production. The rate of hydrolysis, reported as total luminescence counts per hour, indicates hydrolysis in descending order is: Compound (1) (13.9±1.4×10^3); Compound (2) (3.3±0.6×10^3), and Compound (3) (1.0±0.1×10^3) (FIG. 1b, wherein the esters are indicated on the horizontal axis) and FIG. 8 (wherein the respective timeline plots are identified beneath the horizontal axis as (1), (2), etc.). Luminescent counts were recorded using an IVIS In Vivo Imaging System. […] Without wishing to be bound by any theory, we speculate hydrolysis of (3) may involve an SN1 mechanism, thus favoring formation of a double benzylic carbocation.

4T1-Luc cells = assay: Ester stability in live 4T1-Luc cells, BL imaging; assay type: cell-based, murine; conditions: 10 μM, 30 mins at 37° C.
Method: First, we prepared BL660-Me, a methyl ester derivative of BL660 as shown in FIG. 2a for comparison to the benzyl ester (4) of FIG. 1a. Next, we cultured 4T1 murine breast cancer cells, stably expressing the luciferase enzyme (4T1-Luc). The cells were then treated with a DMSO (dimethyl sulfoxide) vehicle control, BL660-Me or Compound (4) (FIG. 3a and FIG. 10a, b, c respectively?). Imaging was performed using the IVIS In Vivo Imaging System.
4T1-Luc cell was cultured in phenol red-free RPMI 1640 (ATCC) with 10% fetal bovine serum (FBS, Sigma Aldrich), and 1% penicillin/streptomycin (Corning).
Evaluation of BL660-Me and 4 in 4T1-Luc Cells. 4T1-Luc cells (180K) were seeded into 24-well plates and incubated for 24 hours. The cells were ˜85% confluent. The media was removed and replaced with serum-free RPMI 1640. An initial background scan was recorded on an IVIS imaging system in open mode where no filters were applied. Cells were then treated with DMSO (2.5 μL, 0.5%), BL660-Me, or compound 4 in DMSO (10 μM final concentration). After 30 minutes incubation at 37° C., bioluminescence was collected. ROIs were drawn around each well. The total luminescence count for each well for a given condition was averaged. The signal intensity was quantified using the Living Image Analysis Software.

A549-Luc2 tumors = assay: BL imaging of tumor hypoxia in a lung cancer model; assay type: in vivo, NU/J mice; conditions: for BL signal in the tumors (in words): 5 to 75 min after retroorbital injection; for BL signal in the tumors (in words) / total luminescent count in tumors after 15 mins: 2.2 μmol/kg; for total luminescent count in tumors after 15 mins: NU/J mice with A549-Luc2 tumors
Method: NU/J mice (male, ˜5-weeks old) were inoculated with A549-Luc2 lung cancer cells (5×10^6) in both flanks. Testing of BL660-NTR commenced after tumors had grown to a volume of ˜300 mm^3 (˜4 weeks). First, we performed imaging using BL660-NTR, which was administered systemically via retroorbital injection (ROI) (FIG. 5a (upper horizontal row of points) and FIG. 14). ROIs were drawn around each tumor and the luminescent count was summed for each animal. […] The BL intensity appears to decrease slightly after 15 mins and levels off until the end of the experiment (75 mins) (FIG. 5c).
Next, to distinguish between NTR activation and off-target ester hydrolysis, we employed Compound (4) as a control reagent, which only differs in that the nitro trigger is absent (FIG. 1a). After approximately 20 hours, the same animals were treated with Compound (4) and imaged (FIG. 5b and FIG. 15). This delay was to ensure the probe had fully cleared from the first experiment. […] The total luminescent count after 15 mins for Compound 4 was only 4.0±0.7×10^3; whereas the corresponding readout was 16.6±2.5×10^3 for BL660-NTR. This represents a […] difference, indicating successful detection of tumor hypoxia (FIG. 5d).
NU/J mice bearing A549-Luc2 tumors were anesthetized using isoflurane (1-3% for maintenance; up to 5% for induction) in oxygen from a precision vaporizer. After testing to ensure animals are fully under anesthesia, an initial background scan is recorded. BL660-NTR or compound 4 formulated in 3:7 v/v DMSO:PBS. The solution was filtered through a […] sterile filter immediately prior to use. The typical injection volume is ˜100 μM at a dose of 2.2 μmol/kg. The solution was then administered via retroorbital injection. Images were captured using the IVIS® imaging system at 5, 15, 30, 45, 60, and 75 minutes after injection. Bioluminescence light was collected in open mode (no filters were applied). Regions of interest (“ROIs”) were drawn around each tumor and summed for each animal. The signal intensity was quantified using the Living Image Analysis Software and is represented in FIGS. 5c and 5d.
Generation of a Subcutaneous Lung Cancer Model: A549 cells were treated with vehicle (media only) or 50 μM DETA NONOate in media for 10 days. Cells were washed with PBS, resuspended in serum-free media (Hams F-12K), and mixed 1:1 with Geltrex (v/v) (to a final concentration of 5×10^7 cells/mL). Tumors were generated by subcutaneously injecting 100 μL of these cell solutions into the flanks of 4-week-old Nu/J mice (The Jackson Laboratory stock #: 002019).
BL660-NTR was dissolved in DMSO and diluted with PBS (3:7 v/v DMSO:PBS). The solution was filtered through a […] sterile filter immediately prior to use. The typical injection volume is ˜100 μM at a dose of 2.2 μmol/kg.
Compound 4 was dissolved in DMSO and diluted with PBS (3:7 v/v DMSO:PBS). The solution was filtered through a […] sterile filter immediately prior to use. The typical injection volume is ˜100 μM at a dose of 2.2 μmol/kg.

[3] = test system: lipase, human carboxyesterase-2, monoacylglycerol lipase, fatty acid amide hydrolase, and aldehyde dehydrogenase 1A1; assay: Enzyme selectivity assay for Compound 4 against panel of ester-cleaving enzymes; assay type: in vitro ADME; conditions: 5 μM, 10 mU of each enzyme (ALDH 1A1 100 nM), 37° C.
Method: as §1
Enzyme Selectivity Assay for Compound 4. […] Compound 4 was incubated with 10 mU of each enzyme at 37° C. for 30 min before ATP-MgSO4 and luciferase were added to initiate bioluminescence production. […] ALDH 1A1 was used at a final concentration of 100 nM.

porcine liver esterase = assay: Esterase reactivity: treatment with porcine liver esterase, BL readout; assay type: in vitro ADME; conditions: porcine liver esterase 0.1 units/mL; versus Compound (1)
Text: The enzymatic rates, reported as total luminescence counts per minute, in descending order are: Compound (1) (31.0±6.8×10^2), (3) (9.5±1.2×10^2), and (2) (0.6±0.1×10^2) (FIG. 1c and FIG. 9). The greater stability imparted by the aromatic ring is not surprising since esterase reactivity can be readily attenuated with bulkier substituents.

A549 cells [4] = assay: MTT cytotoxicity assay of BL660-NTR; assay type: cell-based; conditions: 0 to 20 μM, up to 3 hours
Method: Prior to testing BL660-NTR in vivo, we assessed potential cytotoxicity by treating A549 cells with BL660-NTR across a concentration range of 0 to 20 μM for up to 3 hours.
MTT Cytotoxicity Assay. 24-well plates were seeded with 180,000 cells per well (500 μL of 360,000 cells/mL) and incubated at 37° C. with 5% CO2 for 24 h (˜70% confluent). Media was removed and fresh RPMI 1640 media with 10% FBS containing 0, 5, 10 or 20 μM BL660-NTR (1% DMSO final v/v) was added. The media was removed after 1 and 3 h and replaced with 500 μL of a 20:1 mixture of FBS-free RPMI 1640 and (3-(4,5-dimethylthiazol-2-yl)-2,5-diphenyl-tetrazolium bromide (MTT, 5 mg/mL stock in PBS). The cells were incubated for 2 h under the same conditions and then the medium was removed and replaced with DMSO (500 μL/well). The absorbance of each well was recorded after a 1:5 dilution in DMSO at 555 nm on a microplate reader. Viability was calculated by the absorbance relative to the vehicle control. Values are reported as the mean±standard deviation (n=3).

[5] = 5 μM, 50 equiv analyte, 37° C., 30 min
Method: For instance, transition metals like Cu(II) can facilitate ester hydrolysis via Lewis acid-mediated ester activation. Additionally, various reactive oxygen and nitrogen that can interact with the ester bond were also tested. Lastly, we also examined reactive sulfur species, which are known to reduce aryl nitro groups.
Analyte Selectivity Assay for BL660-NTR. […] Light was collected within 15 min after mixing, and the signal enhancement was determined relative to control wells not treated with analyte. The total volume of each well was 100 μL [PBS (pH 7.4) with 0.5% DMSO]. Metal ion solutions were prepared by dissolving in MilliQ H2O before use. Superoxide anion was added as a solution of potassium superoxide in DMSO. Hydroxide radical was generated according to the previously reported literature. Similarly, peroxynitrite was prepared according to the reported literature. NO was generated in situ from a solution of DEA-NONOate in degassed PBS buffer. Glutathione reduced form was maintained at the final concentration of 5 mM in the reaction mixture. H2S was generated just before use according to the reported literature. NTR was used one unit per well. All other analytes were prepared by dilution or dissolution from commercially available sources.

NTR = NTR (Escherichia coli, UniProt P38489)
Chain of NTR (P38489 whole entry): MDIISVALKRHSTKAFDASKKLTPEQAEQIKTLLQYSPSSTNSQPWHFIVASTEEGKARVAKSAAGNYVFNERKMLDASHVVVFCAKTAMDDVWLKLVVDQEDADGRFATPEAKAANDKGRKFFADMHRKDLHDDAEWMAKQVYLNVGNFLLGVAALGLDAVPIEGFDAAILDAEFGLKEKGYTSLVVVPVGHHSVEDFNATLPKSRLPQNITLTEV
Method: Dose-dependence Activation of BL660-NTR (FIG. 4a) by NTR: The response of BL660-NTR (5 μM) against different concentrations of NTR was measured in a 96-well culture plate and was monitored using the IVIS imaging system. BL660-NTR was incubated with either 0.01 U or 0.1 U NTR at 37° C. for 15 min before the wells were treated with ATP-MgSO4 and luciferase to initiation bioluminescence production. Light was collected immediately after mixing, and the signal enhancement was determined relative to control wells not treated with enzyme. The total volume of each well was 100 μL (PBS (pH 7.4) with 0.5% DMSO). All data is reported as the mean±standard deviation (n=5).

A549 cells [6] = assay: Detection of NTR activity in A549 lung cancer cells cultured in hypoxia or normoxia, lysate BL imaging; assay type: cell-based
Method: Next, we performed a cell imaging study to measure hypoxia within a living system. Specifically, A549 cells (not expressing Luc) were cultured in an atmosphere consisting of 1% or 20% oxygen for 2 days to mimic hypoxic conditions (1%) or normoxic (20%), respectively. Because aryl nitro reduction mediated by mammalian NTRs can be inhibited by molecular oxygen, we expect there to be greater probe activation under oxygen-deficient conditions. After incubating with BL660-NTR for 60 minutes, the cells were washed with fresh PBS, detached, pelleted, and lysed via sonication. The lysates were then transferred to 24-well plates, treated with luciferase and imaged immediately using the IVIS imaging system. […] This represents a significant 4.5-fold difference in BL intensity.
A549 cells were seeded in T75 culture flasks and incubated in 1% or 20% oxygen atmosphere for 48 hours. A solution of BL660-NTR in DMSO (2 mM, 50 μL) was quickly added into each flask such that the final concentration of the probe is 10 μM and 0.5% DMSO. The cells were incubated with the probe for 60 minutes (under the respective culture conditions), washed with fresh PBS, and detached from the culture flasks. The cells were then transferred to a 15 mL centrifuge tube and pelleted at 1000 rpm for 5 min at room temp. The cells (4.25×10^6 cells/mL) were then resuspended in PBS along with 10% protease inhibitor solution (1 protease inhibitor mini tablet per 10 mL PBS, Pierce, Thermo Fisher Scientific) and sonicated on ice for 2.5 minutes (pulse 01, 01, 40%). The cell debris was removed via centrifugation at 4° C. The cell lysates were further diluted 2.5-fold by PBS and 475 μL were transferred into 24-well plates (n=4 for each condition), treated with luciferase (25 μL, 0.25 mg/mL), and imaged immediately using the IVIS imaging system. Bioluminescence light was collected in open mode (no filters were applied). ROIs were drawn around each well. The signal intensity was quantified using the Living Image Analysis Software.

[7] = 15 mins after retroorbital injection

resistance to hydrolysis relative to the parent benzyl ester [2]	activation on exposure to ester-cleaving enzymes [3]	esterase stability relative to the parent benzyl ester (porcine liver esterase)	Compound	rate of hydrolysis at pH 5.0 ([1]; Britton-Robinson buffer pH 5.0, 37° C., 2, 3 and 4 hrs)	rate of hydrolysis at pH 7.4 ([1]; Britton-Robinson buffer pH 7.4, 37° C., 2, 3 and 4 hrs)	rate of hydrolysis at pH 9.0 ([1]; Britton-Robinson buffer pH 9.0, 37° C., 2, 3 and 4 hrs)	total luminescence count (4T1-Luc cells)	BL signal in the tumors (in words) (A549-Luc2 tumors)	total luminescent count in tumors after 15 mins (A549-Luc2 tumors; [7])	cell viability (A549 cells [4])	difference in total luminescent count, BL660-NTR versus Compound 4 (A549-Luc2 tumors; [7])	activation by analytes compared to the NTR positive control [5]	total luminescence signal, NTR absent (NTR; BL660-NTR 5 μM and luciferase without NTR)	total luminescence count, probe, NTR and luciferase all present (NTR; BL660-NTR 5 μM, NTR 0.1 units, luciferase 0.0125 mg/mL)	difference in BL intensity, hypoxic versus normoxic (A549 cells [6]; 1% versus 20% oxygen)	total luminescent counts, hypoxic lysates (A549 cells [6]; A549 cells in 1% oxygen for 2 days, 10 μM probe 60 minutes)	total luminescent counts, normoxic lysates (A549 cells [6]; A549 cells in 20% oxygen for 2 days, 10 μM probe 60 minutes)
about 140 fold	minimal activation	about 68 fold	CCN(CC)c1ccc(C=CC=CC2=NC(C(=O)OC(c3ccccc3)C(C)C)CS2)cc1 (stereo not shown) [Compound (4)]	25.7±9.6×10^2 total luminescence counts per hour	8.6±1.3×10^2 total luminescence counts per hour	52.8±20.7×10^2 total luminescence counts per hour	3.1±1.2×10^3 total luminescence count	barely discernable from background	4.0±0.7×10^3 total luminescent count	–	–	–	–	–	–	–	–
–	–	–	CCN(CC)c1ccc(C=CC=CC2=NC(C(=O)OC(c3ccc([N+](=O)[O-])cc3)C(C)C)CS2)cc1 (stereo not shown) [BL660-NTR]	–	–	–	–	strong BL signals were apparent in all tumors	16.6±2.5×10^3 total luminescent count	No loss of cell viability	5.2 fold	≤ 10%	significantly attenuated	notable increase in the total luminescence count	4.5 fold	5.0±0.1×10^5 total luminescent counts	1.1±0.03×10^5 total luminescent counts
